Columns and labels:
PSA = experiment: Clinical study in chemotherapy naive CRPC: PSA response; assay type: in vivo, human
Description: The primary efficacy endpoint is the percent of subjects with 50% or greater decrease in PSA from baseline to 12 weeks, or PSA nadir (whichever comes first). Frequency and percentage are calculated for each treatment group. The primary analysis is also repeated using the PP Population.
A clinical study was performed according to the protocol of Example 6. Compound (1) was administered to four cohorts, each in a different amount.

[1] = Nonclinical safety evaluation (cell-based and animal models); conditions: nonclinical data
Description: This is a first-in-man trial of Compound 1 and potential toxic effects in humans are not yet fully known. […] An additional known class effect, apparent mineralocorticoid excess (AME), was not seen in nonclinical studies. This trial has been designed with the adverse nonclinical findings, theoretical MOA, and consideration of known class effect issues in mind. The trial evaluates potential clinical benefit and provides proof of concept while minimizing risk to subjects.

[2] = Oral bioavailability (nonclinical); conditions: in vivo
[3] = Chronic administration toxicity in rats; assay type: in vivo; conditions: administered chronically to rats
[4] = In vitro safety testing: genotoxicity
LNCaP = experiment: Inhibition of testosterone-induced proliferation, LNCaP; assay type: cell-based, human; conditions: LNCaP stimulated with 1 nM DHT
Description: (§1) Human prostate cancer cell lines (LNCaP and LAPC-4) were grown in culture and stimulated with 1 nM dihydrotestosterone (DHT). This concentration of DHT stimulated the proliferation of prostate cancer cells.

cytochrome P450 systems = experiment: In vitro safety testing: cytochrome P450 systems; assay type: in vitro ADME
in vivo = conditions: dog
Description: On an AUC basis the human starting dose is predicted to be 16 times lower than the NOAEL dose in dogs.

CYP17 = target: T1, CYP17 (Homo sapiens, UniProt P05093); experiment: Inhibition of lyase activity (CYP17); assay type: biochemical; conditions: CYP17 expressed by transfected E. coli; radiolabelled 17α-hydroxypregnenolone substrate
T1 construct: made in house; host or cells: E. coli
T1 sequence (P05093 1-508): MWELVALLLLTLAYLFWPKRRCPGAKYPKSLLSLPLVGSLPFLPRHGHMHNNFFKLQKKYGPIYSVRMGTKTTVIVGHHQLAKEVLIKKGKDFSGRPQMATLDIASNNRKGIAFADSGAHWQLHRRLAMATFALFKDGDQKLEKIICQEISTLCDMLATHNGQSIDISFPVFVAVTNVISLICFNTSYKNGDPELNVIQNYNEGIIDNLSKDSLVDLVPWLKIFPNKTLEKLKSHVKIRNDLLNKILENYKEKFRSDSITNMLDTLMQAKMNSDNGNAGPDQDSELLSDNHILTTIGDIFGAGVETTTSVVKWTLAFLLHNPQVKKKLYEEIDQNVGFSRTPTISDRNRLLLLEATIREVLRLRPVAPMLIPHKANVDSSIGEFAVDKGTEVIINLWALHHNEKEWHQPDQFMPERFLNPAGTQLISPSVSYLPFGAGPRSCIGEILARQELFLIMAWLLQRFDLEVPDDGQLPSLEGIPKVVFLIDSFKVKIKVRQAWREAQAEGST
Description: Intact CYP17 expressed by transfected E. coli was isolated and purified as an enzyme source. Radiolabelled 17α-hydroxypregnenolone as the substrate. CYP17 activity was measured by the amount of tritiated acetic acid formed during the cleavage of the C-21 side chain of the substrate.

LAPC-4 = experiment: Inhibition of testosterone-induced proliferation, LAPC-4; assay type: cell-based, human; conditions: LAPC-4 stimulated with 1 nM DHT
Description: as §1

off-target receptors = experiment: In vitro safety testing: off-target receptors; assay type: binding
[5] = test system: LAPC4 prostate cancer cell tumors; experiment: Growth of human prostate cancer xenografts in SCID mice; assay type: in vivo
Description: Xenografts of LAPC4 prostate cancer cell tumors were implanted in SCID mice. […] Tumor size was measured weekly and compared with control mice that received vehicle, Casodex® or castration only.

C[C@]12CC[C@H](O)CC1=CCC1C2CC[C@]2(C)C(n3cnc4ccccc43)=CCC12 (stereo partly drawn) [Compound (1), 3-β-Hydroxy-17-(1H-benzimidazol-1-yl)androsta-5,16-diene]
Percentage of Patients With a PSA Response (PSA; Cohort 1, 650 mg/day, 6 patients treated): 67% (4)
Percentage of Patients With a PSA Response (PSA; Cohort 2, 975 mg/day, 6 patients treated): 67% (4)
Percentage of Patients With a PSA Response (PSA; Cohort 3, 1300 mg/day, 6 patients treated): 83% (5)
Percentage of Patients With a PSA Response (PSA; Cohort 4, 1950 mg/day, 7 patients treated): 71% (5)
only safety signal seen [1]: hepatoxicity
toxicity in cell-based and animal models [1]: minimal toxicity
oral bioavailability [2]: orally bioavailable
toxic responses [3]: fails to elicit toxic responses
genotoxicity [4]: does not have genotoxicity
inhibition of testosterone induced proliferation (LNCaP): dose-dependent inhibition
interference with activity of cytochrome P450 systems known to metabolize many drugs (cytochrome P450 systems): does not interfere
NOAEL (in vivo): 150 mg/kg
IC50 (CYP17): 300 nM
inhibition of testosterone induced proliferation (LAPC-4): dose-dependent inhibition
interaction with off-target receptors (off-target receptors): only at high micromolar concentrations
tumor growth ([5]; 50 mg/kg BW SC twice daily, compared with castration): comparable or more pronounced decrease in tumor growth compared to castration
size of androgen dependent human prostate tumors ([5]; SCID mouse models, levels corresponding to human subcutaneous doses of 140, 280, and 560 mg): dramatic reduction
